Laboratory results from EPA's ToxValDB 9.5 (doi:10.2903/j.efsa.2014.3485).
Converted amounts (≈) assume the structure as drawn.

Experiments:
[1] = test system: Colinus virginianus; conditions: oral
[2] = test system: Rattus norvegicus; conditions: oral; for LD50: acute, mortality
[3] = test system: Neomysis kadiakensis; conditions: chronic/long-term; duration: 28 days; reproduction
[4] = test system: Apis mellifera; conditions: acute, duration: 48 hours, mortality
[5] = test system: Oncorhynchus mykiss
[6] = test system: Mus musculus; conditions: developmental; development
[7] = test system: Canidae; conditions: chronic; duration: 1 years; oral; Dog Other; histopathology: nonneoplastic
[8] = test system: Hypoaspis aculeifer; conditions: chronic/long-term
[9] = test system: Daphnia magna; conditions: chronic/long-term; duration: 21 days; reproduction
[10] = test system: Tagia sp.
[11] = test system: Typhlodromus pyri; assay: LR50; higher = less toxic; conditions: not reported; mortality
[12] = reproduction developmental, diet, reproduction

NC(Cc1ncn[nH]1)C(=O)O (stereo not given) [1,2,4-Triazole-3-alanine]
LC50 ([1]; acute, diet, mortality): > 1370 mg/kg-day
LD50 [2]: > 5000 mg/kg-day

CC(C)(C)C(O)(CCc1ccc(Cl)cc1)Cn1cncn1 (stereo not given) [Tebuconazole]
NOEC [3]: 0.035 mg/L
LD50 ([4]; dermal): > 200 µg/piece
LD50 ([4]; oral, unspecified): > 83 µg/piece
LC50 ([5]; acute, duration: 96 hours, mortality): 4.4 µg/mL (≈ 14.3 µM)
NOEC ([5]; chronic/long-term, duration: 83 days, growth): 0.012 mg/L
LOAEL [6]: 10 mg/kg-day
NOAEL [7]: 3 mg/kg-day
NOEC [8]: 50 mg/kg
NOEC [9]: 0.01 mg/L
LC50 ([10]; acute, duration: 14 days, mortality): 1380 mg/kg
NOEC ([10]; chronic/long-term, duration: 56 days, reproduction): 10 mg/kg
LC50 ([1]; acute, diet, mortality): > 703 mg/kg-day
LD50 ([1]; acute, mortality): 1990 mg/kg-day
LOEL [1, 12]: 12.4 mg/kg-day
NOEL [1, 12]: 5.8 mg/kg-day
LD50 [2]: 1700 mg/kg-day
NOEL ([2]; reproduction developmental, diet, body weight): 10 mg/kg-day
LR50 [11]: 58 g/ha
